In ChEMBL document CHEMBL3832761, “MMV Pathogen Box Bioactivity Data” (2017):

What was measured:
HepG2 = experiment: Cytotoxicity data HepG2 CC20 (uM); format: functional
Cryptosporidium parvum [1] = experiment: AntiCryptosporidium parvum activity Compounds added at t0, IC 50 (uM); format: functional, organism-based
Cryptosporidium parvum [2] = experiment: AntiCryptosporidium parvum activity Compounds added 3h after t0, IC 50 (uM); format: functional, organism-based
[3] = HL60 CC50 (uM) Cytotoxicity; format: functional; settings: HL-60
Onchocerca lienalis = experiment: AntiOnchocerca activity O. lienalis microfilariae Motility reduction (%); format: functional; parameters: concentration or dose not given beside the values
MRC5 = experiment: MRC5 CC50 (uM) Cytotoxicity; format: functional; settings: Homo sapiens
Leishmania donovani [4] = experiment: AntiLeishmania activity L. donovani (macrophages) IC50 (uM); format: functional, organism-based
Trypanosoma brucei [5] = experiment: AntiTrypanosoma brucei activity T. b. rhodesiense IC50 (uM); format: functional, organism-based
Trypanosoma cruzi = experiment: AntiTrypanosoma cruzi activity IC50 (uM); format: functional, organism-based
Leishmania donovani [6] = experiment: AntiLeishmania activity L. donovani (axenic) IC50 (uM); format: functional, organism-based
L6 = experiment: L6 CC50 (uM) Cytotoxicity; format: functional; settings: Rattus norvegicus
Trypanosoma brucei [7] = experiment: AntiTrypanosoma brucei activity T. b. brucei IC50 (uM); format: functional, organism-based
[8] = PMM CC50 (uM) Cytotoxicity; format: functional; settings: Macrophage
Leishmania infantum = experiment: AntiLeishmania activity L. infantum (macrophages) IC50 (uM); format: functional, organism-based
Leishmania = experiment: AntiLeishmania activity Toxicity on infected PMM (uM); format: functional
Toxoplasma gondii [9] = experiment: AntiToxoplasma gondii activity data 2-day killing assay: inhibition at 10 uM (%) Experiment C; format: functional; settings: 48 h
Toxoplasma gondii [10] = experiment: AntiToxoplasma gondii activity data Inhibition of plaque forming efficiency (%) Experiment A; format: functional; parameters: concentration or dose not given beside the values
Toxoplasma gondii [11] = experiment: AntiToxoplasma gondii activity data 2-day killing assay: inhibition at 10 uM (%) Experiment E; format: functional
Toxoplasma gondii [12] = experiment: AntiToxoplasma gondii activity data 2-day killing assay: inhibition at 10 uM (%) Experiment D; format: functional
Toxoplasma gondii [13] = experiment: AntiToxoplasma gondii activity data 2-day killing assay: IC50 (uM), Experiment F; format: functional, organism-based; settings: Toxoplasma gondii, 48 h; read-out: IC50
Schistosoma mansoni [14] = experiment: AntiSchistosoma mansoni activity Adults IC50 (uM); format: functional, organism-based
Schistosoma mansoni [15] = experiment: AntiSchistosoma mansoni activity Juveniles IC50 (uM); format: functional, organism-based
Schistosoma mansoni [16] = experiment: AntiSchistosoma mansoni activity Newly Transformed Schistosomula: inhibition at 10 uM at 72h (%); format: functional
Toxoplasma gondii [17] = experiment: AntiToxoplasma gondii activity data 2-day killing assay: IC50 (uM), Experiment G; format: functional, organism-based

| Compound | CC20 (HepG2) [µM] | CC50 [3] [µM] | CC50 (MRC5) [µM] | IC50 (Leishmania donovani [4]) [µM] | IC50 (Trypanosoma brucei [5]) [µM] | IC50 (Trypanosoma cruzi) [µM] | IC50 (Leishmania donovani [6]) [µM] | CC50 (L6) [µM] | IC50 (Trypanosoma brucei [7]) [µM] | CC50 [8] [µM] | IC50 (Leishmania infantum) [µM] | Toxicity on infected macrophages (Leishmania) [µM] | other results |
| --- | --- | --- | --- | --- | --- | --- | --- | --- | --- | --- | --- | --- | --- |
| COc1cc(NC(=O)Cc2nn(C)c(=O)c3ccccc23)ccc1Cl | >80 | > 50 |  |  |  |  |  |  |  |  |  |  | IC50 (Cryptosporidium parvum [1]): < 100 nM; IC50 (Cryptosporidium parvum [2]): 680 nM |
| Nc1ncc(-c2ccc(C(F)(F)F)nc2)cc1-c1ccc(C(F)(F)F)nc1 | >80 |  |  |  |  |  |  |  |  |  |  |  | Activity (Onchocerca lienalis): 93% |
| O=C(Nc1ccccc1-c1nc2c(C(=O)O)cccc2o1)c1ccccc1 | >80 |  | > 32 | > 30 | > 32 | > 32 | 0.4 | 45.4 | > 32 | > 32 | > 32 | >30 |  |
| Clc1cccc(CO[C@H]2CCc3ccccc3[C@@H]2n2ccnn2)c1 | >80 |  | > 32 | > 30 | > 32 | 3.08 | 6.6 | 64 | > 32 | > 32 | > 32 | >30 |  |
| O=C(OCc1ccccc1)N1CCC(c2cc(-c3ccncc3)c(-c3ccc(F)cc3)[nH]2)CC1 |  | > 50 |  |  |  |  |  |  |  |  |  |  | inhibition at 10 µM (Toxoplasma gondii [9]): 77%; Inhibition (Toxoplasma gondii [10]): ~75%; Inhibition (Toxoplasma gondii [11]): 99.1%; Inhibition (Toxoplasma gondii [12]): 76.8%; IC50 (Toxoplasma gondii [13]): 870 nM |
| CC(C)n1nc(-c2cc3c(Cl)cccc3[nH]2)c2c(N)ncnc21 |  | > 25 |  |  |  |  |  |  |  |  |  |  | inhibition at 10 µM (Toxoplasma gondii [9]): 99.6%; Inhibition (Toxoplasma gondii [10]): 100%; Inhibition (Toxoplasma gondii [11]): 99.5%; Inhibition (Toxoplasma gondii [12]): 100%; IC50 (Toxoplasma gondii [13]): 160 nM |
| c1ccc(Oc2ccc(-c3cc(CN4CCOCC4)[nH]n3)cc2)cc1 | 28.9 |  | > 32 | 26.1 | 5.26 | 16 | 9.7 | 22.9 | 15.1 | > 32 | > 32 | 30 |  |
| Cc1cc(OCC(=O)Nc2ccc(C(C)C)cc2)n(C)c(=O)c1C#N | >80 |  |  |  |  |  |  |  |  |  |  |  | IC50 (Schistosoma mansoni [14]): 7.2 µM; IC50 (Schistosoma mansoni [15]): 3.88 µM; Inhibition (Schistosoma mansoni [16]): 13.3% |
| CCOc1ccc2cc(-c3nn(C(C)(C)C)c(N)c3C(N)=O)cnc2c1 |  |  |  |  |  |  |  |  |  |  |  |  | IC50 (Cryptosporidium parvum [1]): 50 nM |
| COc1ccc(C(=N)N)cc1-c1cn(-c2ccc(C(=N)N)cc2)nn1 | 5.47 |  | > 32 | > 30 | < 0.13 | 21.5 | 14.3 | 26.7 | 0.25 | > 32 | > 32 | 30 |  |
| CC(C)(C)n1nc(-c2ccccc2)c2c(N)ncnc21 |  | > 25 |  |  |  |  |  |  |  |  |  |  | inhibition at 10 µM (Toxoplasma gondii [9]): 96.5%; Inhibition (Toxoplasma gondii [10]): 100%; Inhibition (Toxoplasma gondii [11]): 97.5%; Inhibition (Toxoplasma gondii [12]): 100%; IC50 (Toxoplasma gondii [13]): 1100 nM |
| Clc1ccc(Cl)c(CO[C@H]2CCCC[C@@H]2n2ccnc2)c1 | 37.1 |  | > 32 | 12.8 | 22.9 | 1.36 | 15.6 | 30.7 | > 32 | 16 | 16.2 | 30 |  |
| COC(=O)c1cccc2oc(-c3cccc(OC)c3NC(=O)c3cc(-c4ccccc4)on3)nc12 | >80 |  | > 32 | > 30 | > 32 | > 32 | 3.95 | 50 | > 32 | > 32 | > 32 | >30 |  |
| CC(C)(C)n1nc(Cc2cccc3ccccc23)c2c(N)ncnc21 | 19 | 24.1 |  |  |  |  |  |  |  |  |  |  | IC50 (Cryptosporidium parvum [1]): 100 nM; IC50 (Cryptosporidium parvum [2]): > 10000 nM |
| N#CCN(CCCCN1CCN(c2ccc(F)cc2)CC1)C(=O)OCc1ccccc1 |  |  | > 32 | 22.2 | 16.4 | 4.62 | > 100 | 15.3 | 24.9 | > 32 | 25.4 | >30 | Toxicity (Leishmania): >30 µM |
| Nc1nc(N)c2c3c(sc2n1)CN(Cc1ccccc1)CC3 |  | > 50 |  |  |  |  |  |  |  |  |  |  | inhibition at 10 µM (Toxoplasma gondii [9]): 54.2%; Inhibition (Toxoplasma gondii [10]): 100%; Inhibition (Toxoplasma gondii [11]): 81.6%; IC50 (Toxoplasma gondii [17]): no inhibition; Inhibition (Toxoplasma gondii [12]): 83.2%; IC50 (Toxoplasma gondii [13]): 7060 nM |
| c1ccc(Oc2ccc(-c3cc(N4CCOCC4)[nH]n3)cc2)cc1 | 7.47 |  | > 32 | > 30 | 1.29 | 16 | 3.87 | 10 | 3.45 | > 32 | 21.5 | >30 |  |
